From PMC7031696 (Cell chemical biology, 2019)
Where two headings read alike, the source gives them in different places.

Experiments:
[1] = tested on: Plasmodium falciparum 3D7-A10 parasites; test: Stage specificity assay (8-h exposure of synchronized stages, IC50^8h); format: cell-based; conditions: for IC50: Plasmodium falciparum
[2] = tested on: asynchronous 3D7-A10 parasite cultures; test: Standard 72-h exposure asexual blood stage susceptibility assay (IC50^72h); format: cell-based, Plasmodium falciparum; conditions: Plasmodium falciparum, 3D7, 72 h, read-out: Overall (72hr assay) Mean IC50 (IC50^72h)
[3] = tested on: 3D7-MR4 trophozoite parasite-infected RBCs; test: Metabolomic profiling (hydrophilic metabolite changes, UHPLC-MS); format: cell-based, Plasmodium falciparum

## OC(c1cc(C(F)(F)F)nc2c(C(F)(F)F)cccc12)C1CCCCN1 (stereo not drawn) [Mefloquine, reference compound]
[1]; 3D7-A10
  Ratio lowest IC50 8hr/IC50 72hr: 3.0
[1]; 3D7, read-out: Early rings Mean IC50 (IC50^8h), 8-h exposure 0–8 hr, 3D7-A10, survival at 60 h
  IC50: 0.258 µM
[1]; 3D7, read-out: Early trophozoites Mean IC50 (IC50^8h), 8-h exposure 16–24 hr, 3D7-A10, survival at 60 h
  IC50: 0.0288 µM
[1]; 3D7, read-out: IC50^8h values, text summary of Table S1
  IC50: < 0.3 µM
[1]; 3D7, read-out: Late rings Mean IC50 (IC50^8h), 8-h exposure 8–16 hr, 3D7-A10, survival at 60 h
  IC50: 0.147 µM
[1]; 3D7, read-out: Late trophozoites Mean IC50 (IC50^8h), 8-h exposure 24–32 hr, 3D7-A10, survival at 60 h
  IC50: 0.0295 µM
[1]; 3D7, read-out: Schizonts Mean IC50 (IC50^8h), 8-h exposure 32–40 hr, 3D7-A10, survival at 60 h
  IC50: 0.138 µM
[1]; period when the parasite was most susceptible (lowest IC50^8h)
  Stage of peak activity (Figure 6): only in trophozoites
[1]; stage(s) with the lowest IC50^8h
  Peak Activity (Table S1): Trophs
[2]
  IC50: 0.0098 µM
[3]; 10 × IC50^72h, 2.5 hr, trophozoites
  changes within the set of metabolites detected (low fold change group): did not induce major changes
[3]; metabolite 3-phosphoglycerate, log2 fold change
  Log2(fold changes) 3-phosphoglycerate: 0.2359
[3]; metabolite 4-Pyridoxic acid, log2 fold change
  Log2(fold changes) 4-Pyridoxic acid: 0.0740
[3]; metabolite 4-aminobutyrate, log2 fold change
  Log2(fold changes) 4-aminobutyrate: -0.0258
[3]; metabolite 4-phosphopantetheine, log2 fold change
  Log2(fold changes) 4-phosphopantetheine: 0.0000
[3]; metabolite 4-phosphopantothenate, log2 fold change
  Log2(fold changes) 4-phosphopantothenate: 0.0024
[3]; metabolite 5-aminopentanoic acid, log2 fold change
  Log2(fold changes) 5-aminopentanoic acid: 0.0000
[3]; metabolite 5-methyl-THF, log2 fold change
  Log2(fold changes) 5-methyl-THF: 0.0000
[3]; metabolite 5-phosphoribosyl-1-pyrophosphate, log2 fold change
  Log2(fold changes) 5-phosphoribosyl-1-pyrophosphate: 0.0000
[3]; metabolite 6-phospho-D-gluconate, log2 fold change
  Log2(fold changes) 6-phospho-D-gluconate: -0.0079
[3]; metabolite HVDD
  Log2(fold change) HVDD: 0.0000
[3]; metabolite Hydroxyisocaproic acid
  Log2(fold change) Hydroxyisocaproic acid: 0.0000
[3]; metabolite IDP
  Log2(fold change) IDP: 0.0640
[3]; metabolite IMP
  Log2(fold change) IMP: -0.0534
[3]; metabolite Inositol
  Log2(fold change) Inositol: 0.0000
[3]; metabolite Isopentyl-PP
  Log2(fold change) Isopentyl-PP: 0.0000
[3]; metabolite L-arginino-succinate
  Log2(fold change) L-arginino-succinate: -0.3693
[3]; metabolite LD
  Log2(fold change) LD: 0.0808
[3]; metabolite Myristoyl/tetradecanoyl-CoA
  Log2(fold change) Myristoyl/tetradecanoyl-CoA: 0.0941
[3]; metabolite N-Acetyl-L-alanine
  Log2(fold change) N-Acetyl-L-alanine: -0.2190
[3]; metabolite N-acetyl-L-ornithine
  Log2(fold change) N-acetyl-L-ornithine: -0.0436
[3]; metabolite N-acetyl-glucosamine-1/6-phosphate
  Log2(fold change) N-acetyl-glucosamine-1/6-phosphate: 0.0000
[3]; metabolite N-acetyl-glutamate
  Log2(fold change) N-acetyl-glutamate: 0.0134
[3]; metabolite N-acetyl-glutamine
  Log2(fold change) N-acetyl-glutamine: 0.0000
[3]; metabolite N-carbamoyl-L-aspartate
  Log2(fold change) N-carbamoyl-L-aspartate: 0.0293
[3]; metabolite NAD+
  Log2(fold change) NAD+: -0.0636
[3]; metabolite NADH
  Log2(fold change) NADH: 0.0000
[3]; metabolite NADP+
  Log2(fold change) NADP+: -0.0054
[3]; metabolite NADPH
  Log2(fold change) NADPH: 0.3297
[3]; metabolite O-acetyl-L-serine
  Log2(fold change) O-acetyl-L-serine: 0.0000
[3]; metabolite Octoluse 8/1P
  Log2(fold change) Octoluse 8/1P: -0.0524
[3]; metabolite Octoluse Bisphosphate
  Log2(fold change) Octoluse Bisphosphate: -0.1015
[3]; metabolite PD
  Log2(fold change) PD: -0.1757
[3]; metabolite PE
  Log2(fold change) PE: -0.0476
[3]; metabolite PEE
  Log2(fold change) PEE: 0.0186
[3]; metabolite PEEK
  Log2(fold change) PEEK: 0.1844
[3]; metabolite PVNF
  Log2(fold change) PVNF: 0.0025
[3]; metabolite Pyroglutamic acid
  Log2(fold change) Pyroglutamic acid: -0.3976
[3]; metabolite Pyrophosphate
  Log2(fold change) Pyrophosphate: 0.0000
[3]; metabolite Ribose-5-phosphate
  Log2(fold change) Ribose-5-phosphate: 0.0147
[3]; metabolite S-adenosyl-L-homocysteine
  Log2(fold change) S-adenosyl-L-homocysteine: 0.1505
[3]; metabolite S-adenosyl-L-methioninamine
  Log2(fold change) S-adenosyl-L-methioninamine: 0.0000
[3]; metabolite S-adenosyl-L-methionine
  Log2(fold change) S-adenosyl-L-methionine: 0.0000
[3]; metabolite S-methyl-5'-thioadenosine
  Log2(fold change) S-methyl-5'-thioadenosine: 0.0813
[3]; metabolite SD
  Log2(fold change) SD: -0.0876
[3]; metabolite SDL
  Log2(fold change) SDL: -0.0202
[3]; metabolite SID
  Log2(fold change) SID: 0.0863
[3]; metabolite Sedoheptulose bisphosphate
  Log2(fold change) Sedoheptulose bisphosphate: 0.1126
[3]; metabolite Thiamine pyrophosphate
  Log2(fold change) Thiamine pyrophosphate: -0.0341
[3]; metabolite UDP-D-glucose, log2 fold change
  Log2(fold changes) UDP-D-glucose: 0.0242
[3]; metabolite UDP-D-glucuronate, log2 fold change
  Log2(fold changes) UDP-D-glucuronate: 0.0727
[3]; metabolite UDP-N-acetyl-glucosamine, log2 fold change
  Log2(fold changes) UDP-N-acetyl-glucosamine: -0.0280
[3]; metabolite UDP, log2 fold change
  Log2(fold changes) UDP: -0.6698
[3]; metabolite UMP, log2 fold change
  Log2(fold changes) UMP: -0.1565
[3]; metabolite UTP, log2 fold change
  Log2(fold changes) UTP: 0.0862
[3]; metabolite hydroxyphenylpyruvate
  Log2(fold change) hydroxyphenylpyruvate: 0.0000
[3]; metabolite hydroxyproline/Aminolevulinate
  Log2(fold change) hydroxyproline/Aminolevulinate: 0.0725
[3]; metabolite hypoxanthine
  Log2(fold change) hypoxanthine: 0.0000
[3]; metabolite indole
  Log2(fold change) indole: 0.0000
[3]; metabolite inosine
  Log2(fold change) inosine: -0.4356
[3]; metabolite isoleucine
  Log2(fold change) isoleucine: -0.0171
[3]; metabolite lactate
  Log2(fold change) lactate: -0.5208
[3]; metabolite leucine
  Log2(fold change) leucine: -0.1746
[3]; metabolite lysine
  Log2(fold change) lysine: -0.1798
[3]; metabolite malate
  Log2(fold change) malate: -0.0910
[3]; metabolite maleic acid
  Log2(fold change) maleic acid: -0.0602
[3]; metabolite methionine
  Log2(fold change) methionine: -0.0405
[3]; metabolite myo-inositol
  Log2(fold change) myo-inositol: -0.7507
[3]; metabolite nicotinamide mononucleotide
  Log2(fold change) nicotinamide mononucleotide: -0.0942
[3]; metabolite nicotinate
  Log2(fold change) nicotinate: -0.4821
[3]; metabolite ornithine
  Log2(fold change) ornithine: 0.0000
[3]; metabolite orotate
  Log2(fold change) orotate: -0.4063
[3]; metabolite orotidine-5'-phosphate
  Log2(fold change) orotidine-5'-phosphate: -0.7157
[3]; metabolite oxaloacetate
  Log2(fold change) oxaloacetate: 0.0000
[3]; metabolite p-aminobenzoate
  Log2(fold change) p-aminobenzoate: 0.0000
[3]; metabolite p-hydroxybenzoate
  Log2(fold change) p-hydroxybenzoate: 0.0000
[3]; metabolite pantothenate
  Log2(fold change) pantothenate: 0.0000
[3]; metabolite phenylalanine
  Log2(fold change) phenylalanine: -0.1685
[3]; metabolite phenylpyruvate
  Log2(fold change) phenylpyruvate: 0.0000
[3]; metabolite phosphoenolpyruvate
  Log2(fold change) phosphoenolpyruvate: 0.1912
[3]; metabolite prephenate
  Log2(fold change) prephenate: 0.0000
[3]; metabolite proline
  Log2(fold change) proline: -0.3045
[3]; metabolite pyridoxine
  Log2(fold change) pyridoxine: -0.5037
[3]; metabolite pyruvate
  Log2(fold change) pyruvate: -0.3898
[3]; metabolite riboflavin
  Log2(fold change) riboflavin: -0.1185
[3]; metabolite ribose
  Log2(fold change) ribose: -0.0288
[3]; metabolite ribose-phosphate
  Log2(fold change) ribose-phosphate: -0.1512
[3]; metabolite ribulose-5-phosphate
  Log2(fold change) ribulose-5-phosphate: 0.0069
[3]; metabolite serine
  Log2(fold change) serine: -0.0430
[3]; metabolite sn-glycerol-3-phosphate
  Log2(fold change) sn-glycerol-3-phosphate: 0.2262
[3]; metabolite succinate/Methylmalonic acid
  Log2(fold change) succinate/Methylmalonic acid: 0.1026
[3]; metabolite succinyl-CoA/methylmalonyl-CoA
  Log2(fold change) succinyl-CoA/methylmalonyl-CoA: 0.0000
[3]; metabolite taurine
  Log2(fold change) taurine: -0.0060
[3]; metabolite thiamine
  Log2(fold change) thiamine: -0.0860
[3]; metabolite threonine/homoserine
  Log2(fold change) threonine/homoserine: -0.1129
[3]; metabolite thymidine
  Log2(fold change) thymidine: 0.0000
[3]; metabolite thymine, log2 fold change
  Log2(fold changes) thymine: 0.0000
[3]; metabolite trehalose-6-Phosphate, log2 fold change
  Log2(fold changes) trehalose-6-Phosphate: 0.0000
[3]; metabolite tryptophan, log2 fold change
  Log2(fold changes) tryptophan: 0.0186
[3]; metabolite tyrosine, log2 fold change
  Log2(fold changes) tyrosine: 0.0223
[3]; metabolite uridine, log2 fold change
  Log2(fold changes) uridine: 0.0000
